According to patent US10479786B2, “Protein kinase inhibitors” (Princeton Drug Discovery Inc, priority 2016, dated 2019):
Values belong to the compound of their own block, whether it stands above or below them.

What was measured:
Test in all cases: Off-chip Mobility Shift Assay, kinase inhibition
Assay type in all cases: biochemical
LYNb = biological target: T1, LYNb (Homo sapiens, UniProt P07948); details: at 1 nM; recombinant LYNb
T1 construct: purchased Carna Biosciences, Inc

SRM = biological target: T2, SRM (Homo sapiens, UniProt Q9H3Y6); details: at 10 nM; recombinant SRM
T2 construct: purchased Carna Biosciences, Inc

CSK = biological target: T3, CSK (Homo sapiens, UniProt P41240); details: at 10 nM; recombinant CSK
T3 construct: purchased Carna Biosciences, Inc

KIT(D816Y) = biological target: T4, KIT(D816Y) (Homo sapiens, UniProt P10721, D816Y); details: at 10 nM; recombinant KIT(D816Y)
T4 construct: purchased Carna Biosciences, Inc
T4 sequence (P10721 26-976 D816Y): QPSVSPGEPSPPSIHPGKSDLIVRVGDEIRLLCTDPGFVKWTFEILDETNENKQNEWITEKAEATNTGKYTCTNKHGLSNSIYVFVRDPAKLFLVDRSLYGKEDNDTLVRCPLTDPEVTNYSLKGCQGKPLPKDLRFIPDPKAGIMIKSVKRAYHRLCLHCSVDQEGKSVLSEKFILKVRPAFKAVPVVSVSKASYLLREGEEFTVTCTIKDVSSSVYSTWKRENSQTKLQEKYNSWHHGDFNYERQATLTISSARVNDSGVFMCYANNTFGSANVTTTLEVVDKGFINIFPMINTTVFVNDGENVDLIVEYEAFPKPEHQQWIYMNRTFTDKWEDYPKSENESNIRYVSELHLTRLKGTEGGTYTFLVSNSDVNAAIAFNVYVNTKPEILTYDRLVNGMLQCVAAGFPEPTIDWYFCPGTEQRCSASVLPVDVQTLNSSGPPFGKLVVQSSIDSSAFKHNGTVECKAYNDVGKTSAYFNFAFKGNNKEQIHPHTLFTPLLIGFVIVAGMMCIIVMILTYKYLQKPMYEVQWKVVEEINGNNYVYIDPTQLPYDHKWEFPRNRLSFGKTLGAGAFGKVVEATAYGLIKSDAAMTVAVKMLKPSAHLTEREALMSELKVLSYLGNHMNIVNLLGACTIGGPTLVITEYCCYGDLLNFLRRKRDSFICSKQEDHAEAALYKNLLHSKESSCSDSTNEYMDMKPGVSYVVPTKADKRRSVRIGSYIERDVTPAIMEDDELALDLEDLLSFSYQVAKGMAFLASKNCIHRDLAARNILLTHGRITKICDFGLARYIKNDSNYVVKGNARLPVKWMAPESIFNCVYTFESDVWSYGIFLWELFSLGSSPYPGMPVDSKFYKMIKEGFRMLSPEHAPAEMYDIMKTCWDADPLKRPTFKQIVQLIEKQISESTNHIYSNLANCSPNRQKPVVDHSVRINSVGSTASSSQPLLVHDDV

BRK = biological target: T5, BRK (Homo sapiens, UniProt Q13882); details: at 10 nM; recombinant BRK
T5 construct: purchased Carna Biosciences, Inc

DDR1 = biological target: T6, DDR1 (Homo sapiens, UniProt Q08345); details: at 10 nM; recombinant DDR1
T6 construct: purchased Carna Biosciences, Inc

HER4 = biological target: T7, HER4 (Homo sapiens, UniProt Q15303); details: at 10 nM; recombinant HER4
T7 construct: purchased Carna Biosciences, Inc

EGFR(L858R) = biological target: T8, EGFR(L858R) (Homo sapiens, UniProt P00533, L858R); details: at 10 nM; recombinant EGFR(L858R)
T8 construct: purchased Carna Biosciences, Inc

KIT(V654A) = biological target: T9, KIT(V654A) (Homo sapiens, UniProt P10721, V654A); details: at 10 nM; recombinant KIT(V654A)
T9 construct: purchased Carna Biosciences, Inc
T9 sequence (P10721 26-976 V654A): as the sequence (P10721 26-976 D816Y) above, with V629A, Y791D counted along it

JAK1 = biological target: T10, JAK1 (Homo sapiens, UniProt P23458); details: at 10 nM; recombinant JAK1
T10 construct: purchased Carna Biosciences, Inc

RET = biological target: T11, RET (Homo sapiens, UniProt P07949); details: at 10 nM; recombinant RET
T11 construct: purchased Carna Biosciences, Inc

RET(S891A) = biological target: T12, RET(S891A) (Homo sapiens, UniProt P07949, S891A); details: at 10 nM; recombinant RET(S891A)
T12 construct: purchased Carna Biosciences, Inc

FGFR3 = biological target: T13, FGFR3 (Homo sapiens, UniProt P22607); details: at 10 nM; recombinant FGFR3
T13 construct: purchased Carna Biosciences, Inc

ALK = biological target: T14, ALK (Homo sapiens, UniProt Q9UM73); details: at 10 nM; recombinant ALK
T14 construct: purchased Carna Biosciences, Inc

BRAF(V600E) = biological target: T15, BRAF(V600E) (Homo sapiens, UniProt P15056, V600E); details: at 10 nM; recombinant BRAF(V600E)
T15 construct: purchased Carna Biosciences, Inc
T15 sequence (P15056 whole entry V600E): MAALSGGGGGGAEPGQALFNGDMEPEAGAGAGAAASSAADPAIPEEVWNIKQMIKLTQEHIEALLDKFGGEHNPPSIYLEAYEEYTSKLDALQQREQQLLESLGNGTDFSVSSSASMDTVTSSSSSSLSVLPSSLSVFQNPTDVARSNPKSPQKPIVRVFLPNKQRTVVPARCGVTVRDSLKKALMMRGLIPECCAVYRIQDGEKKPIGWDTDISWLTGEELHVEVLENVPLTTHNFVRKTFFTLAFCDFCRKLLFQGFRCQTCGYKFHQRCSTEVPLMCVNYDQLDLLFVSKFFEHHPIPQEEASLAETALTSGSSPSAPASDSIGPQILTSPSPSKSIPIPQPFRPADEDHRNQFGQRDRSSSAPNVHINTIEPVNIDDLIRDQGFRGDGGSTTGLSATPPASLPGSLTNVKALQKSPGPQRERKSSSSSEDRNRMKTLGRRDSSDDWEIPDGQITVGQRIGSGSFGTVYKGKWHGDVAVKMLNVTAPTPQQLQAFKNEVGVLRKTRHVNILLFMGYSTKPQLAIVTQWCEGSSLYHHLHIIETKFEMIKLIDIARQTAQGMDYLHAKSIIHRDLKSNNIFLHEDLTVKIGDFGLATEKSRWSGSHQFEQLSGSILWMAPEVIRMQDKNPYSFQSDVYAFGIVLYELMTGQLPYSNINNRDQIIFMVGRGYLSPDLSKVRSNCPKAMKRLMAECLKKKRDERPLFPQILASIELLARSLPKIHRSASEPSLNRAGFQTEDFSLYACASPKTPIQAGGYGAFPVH

ROCK1 = biological target: T16, ROCK1 (Homo sapiens, UniProt Q13464); details: at 10 nM; recombinant ROCK1
T16 construct: purchased Carna Biosciences, Inc
T16 sequence (Q13464 whole entry): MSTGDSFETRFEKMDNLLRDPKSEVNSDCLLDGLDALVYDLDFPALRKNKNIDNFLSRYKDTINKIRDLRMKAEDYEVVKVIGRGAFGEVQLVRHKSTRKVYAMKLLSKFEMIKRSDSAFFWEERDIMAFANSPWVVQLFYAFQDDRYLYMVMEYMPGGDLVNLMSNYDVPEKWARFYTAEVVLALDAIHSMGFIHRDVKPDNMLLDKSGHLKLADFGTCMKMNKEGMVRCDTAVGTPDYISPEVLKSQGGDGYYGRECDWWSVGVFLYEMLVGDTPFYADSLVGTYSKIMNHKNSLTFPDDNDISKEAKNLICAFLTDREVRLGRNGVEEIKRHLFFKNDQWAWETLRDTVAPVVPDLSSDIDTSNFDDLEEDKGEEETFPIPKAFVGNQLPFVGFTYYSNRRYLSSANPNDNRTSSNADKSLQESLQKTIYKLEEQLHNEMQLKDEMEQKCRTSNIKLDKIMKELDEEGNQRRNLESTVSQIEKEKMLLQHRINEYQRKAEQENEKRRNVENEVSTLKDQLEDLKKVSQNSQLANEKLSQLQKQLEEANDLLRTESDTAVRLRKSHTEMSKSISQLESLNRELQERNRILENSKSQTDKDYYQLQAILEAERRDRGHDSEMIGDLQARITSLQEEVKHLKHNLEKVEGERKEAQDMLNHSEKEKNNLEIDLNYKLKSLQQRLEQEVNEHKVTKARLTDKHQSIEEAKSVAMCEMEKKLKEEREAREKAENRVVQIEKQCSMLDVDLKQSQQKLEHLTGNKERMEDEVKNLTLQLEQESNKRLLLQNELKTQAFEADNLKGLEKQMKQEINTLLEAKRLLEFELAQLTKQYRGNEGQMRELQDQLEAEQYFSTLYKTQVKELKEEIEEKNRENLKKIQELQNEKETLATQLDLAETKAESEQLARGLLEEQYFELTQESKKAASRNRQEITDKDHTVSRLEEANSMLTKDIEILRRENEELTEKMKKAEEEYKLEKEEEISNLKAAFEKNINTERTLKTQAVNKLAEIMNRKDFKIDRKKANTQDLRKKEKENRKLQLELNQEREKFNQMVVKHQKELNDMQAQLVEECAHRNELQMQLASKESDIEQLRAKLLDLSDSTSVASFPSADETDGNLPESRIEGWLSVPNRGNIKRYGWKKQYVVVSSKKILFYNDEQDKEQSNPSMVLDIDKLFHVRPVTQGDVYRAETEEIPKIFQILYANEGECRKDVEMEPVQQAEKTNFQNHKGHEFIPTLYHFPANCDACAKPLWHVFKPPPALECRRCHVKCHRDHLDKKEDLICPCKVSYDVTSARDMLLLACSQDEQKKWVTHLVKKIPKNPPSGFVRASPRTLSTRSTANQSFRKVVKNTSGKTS

AurA = biological target: T17, AurA (Homo sapiens, UniProt O14965); details: at 10 nM; recombinant AurA
T17 construct: purchased Carna Biosciences, Inc
T17 sequence (O14965 whole entry): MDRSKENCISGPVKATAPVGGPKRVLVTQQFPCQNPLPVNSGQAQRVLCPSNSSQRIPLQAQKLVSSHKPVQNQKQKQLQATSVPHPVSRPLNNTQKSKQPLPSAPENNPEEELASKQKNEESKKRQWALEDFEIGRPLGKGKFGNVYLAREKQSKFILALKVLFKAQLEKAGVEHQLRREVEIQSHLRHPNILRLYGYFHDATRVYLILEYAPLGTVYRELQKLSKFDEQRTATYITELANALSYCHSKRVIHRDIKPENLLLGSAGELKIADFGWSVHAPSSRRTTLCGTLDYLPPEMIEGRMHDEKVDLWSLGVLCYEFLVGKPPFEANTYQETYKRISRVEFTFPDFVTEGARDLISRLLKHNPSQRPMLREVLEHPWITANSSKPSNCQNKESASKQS

MAP2K2 = biological target: T18, MAP2K2 (Homo sapiens, UniProt P36507); details: at 10 nM; recombinant MAP2K2
T18 construct: purchased Carna Biosciences, Inc

RET(M918T) = biological target: T19, RET(M918T) (Homo sapiens, UniProt P07949, M918T); details: at 10 nM; recombinant RET(M918T)
T19 construct: purchased Carna Biosciences, Inc

KDR = biological target: T20, KDR (Homo sapiens, UniProt P35968); details: at 10 nM; recombinant KDR
T20 construct: purchased Carna Biosciences, Inc

FGFR2 = biological target: T21, FGFR2 (Homo sapiens, UniProt P21802); details: at 10 nM; recombinant FGFR2
T21 construct: purchased Carna Biosciences, Inc

Erk1 = biological target: T22, Erk1 (Homo sapiens, UniProt P27361); details: at 10 nM; recombinant Erk1
T22 construct: purchased Carna Biosciences, Inc
T22 sequence (P27361 whole entry): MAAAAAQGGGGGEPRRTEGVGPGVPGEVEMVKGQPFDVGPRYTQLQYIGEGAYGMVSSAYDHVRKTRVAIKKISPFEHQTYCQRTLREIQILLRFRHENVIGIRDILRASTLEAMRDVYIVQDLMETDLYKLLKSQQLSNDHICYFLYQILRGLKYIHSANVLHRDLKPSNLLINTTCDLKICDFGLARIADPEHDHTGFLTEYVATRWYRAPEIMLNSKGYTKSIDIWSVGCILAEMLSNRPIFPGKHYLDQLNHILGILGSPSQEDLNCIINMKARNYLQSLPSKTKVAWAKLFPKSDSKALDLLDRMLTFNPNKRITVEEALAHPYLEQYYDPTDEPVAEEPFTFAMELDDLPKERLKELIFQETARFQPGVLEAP

EGFR(T790M) = biological target: T23, EGFR(T790M) (Homo sapiens, UniProt P00533, T790M); details: at 10 nM; recombinant EGFR(T790M)
T23 construct: purchased Carna Biosciences, Inc
T23 sequence (P00533 25-1210 T790M): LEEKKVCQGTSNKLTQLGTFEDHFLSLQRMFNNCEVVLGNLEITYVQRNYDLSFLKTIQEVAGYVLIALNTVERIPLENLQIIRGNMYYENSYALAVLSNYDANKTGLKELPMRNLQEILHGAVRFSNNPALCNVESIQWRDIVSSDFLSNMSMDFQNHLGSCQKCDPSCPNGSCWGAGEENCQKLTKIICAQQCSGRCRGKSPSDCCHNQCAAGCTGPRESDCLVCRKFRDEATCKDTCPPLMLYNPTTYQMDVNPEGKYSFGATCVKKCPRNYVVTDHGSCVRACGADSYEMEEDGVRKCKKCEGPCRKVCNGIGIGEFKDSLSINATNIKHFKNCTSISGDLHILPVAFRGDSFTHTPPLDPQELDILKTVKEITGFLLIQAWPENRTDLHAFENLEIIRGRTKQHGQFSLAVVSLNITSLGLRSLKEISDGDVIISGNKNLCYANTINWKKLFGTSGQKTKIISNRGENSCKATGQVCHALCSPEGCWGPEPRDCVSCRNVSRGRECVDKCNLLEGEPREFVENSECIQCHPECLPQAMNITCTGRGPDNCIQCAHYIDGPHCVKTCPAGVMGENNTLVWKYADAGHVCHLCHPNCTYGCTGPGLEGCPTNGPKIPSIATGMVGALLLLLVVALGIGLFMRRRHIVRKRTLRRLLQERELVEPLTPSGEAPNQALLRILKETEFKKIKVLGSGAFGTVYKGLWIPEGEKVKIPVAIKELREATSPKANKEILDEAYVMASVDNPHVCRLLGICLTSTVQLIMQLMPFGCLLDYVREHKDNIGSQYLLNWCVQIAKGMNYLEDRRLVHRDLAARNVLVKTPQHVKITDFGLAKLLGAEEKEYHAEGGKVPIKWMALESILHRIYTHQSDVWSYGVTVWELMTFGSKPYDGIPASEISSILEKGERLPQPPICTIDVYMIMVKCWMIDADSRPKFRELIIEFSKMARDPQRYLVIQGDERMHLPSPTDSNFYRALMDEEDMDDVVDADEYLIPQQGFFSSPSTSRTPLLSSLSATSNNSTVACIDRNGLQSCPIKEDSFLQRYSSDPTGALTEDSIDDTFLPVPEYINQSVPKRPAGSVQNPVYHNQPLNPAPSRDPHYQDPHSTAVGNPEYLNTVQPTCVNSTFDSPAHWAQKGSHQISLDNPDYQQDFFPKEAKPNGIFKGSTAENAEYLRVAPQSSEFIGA

PDGFRα(T674I) = biological target: T24, PDGFRα(T674I) (Homo sapiens, UniProt P16234, T674I); details: at 10 nM; recombinant PDGFRα(T674I)
T24 construct: purchased Carna Biosciences, Inc

JAK3 = biological target: T25, JAK3 (Homo sapiens, UniProt P52333); details: at 10 nM; recombinant JAK3
T25 construct: purchased Carna Biosciences, Inc

MAP2K1 = biological target: T26, MAP2K1 (Homo sapiens, UniProt Q02750); details: at 10 nM; recombinant MAP2K1
T26 construct: purchased Carna Biosciences, Inc

EGFR(T790M/L858R) = biological target: T27, EGFR(T790M/L858R) (Homo sapiens, UniProt P00533, L858R/T790M); details: at 10 nM; recombinant EGFR(T790M/L858R)
T27 construct: purchased Carna Biosciences, Inc

FLT1 = biological target: T28, FLT1 (Homo sapiens, UniProt P17948); details: at 10 nM; recombinant FLT1
T28 construct: purchased Carna Biosciences, Inc

MET = biological target: T29, MET (Homo sapiens, UniProt P08581); details: at 10 nM; recombinant MET
T29 construct: purchased Carna Biosciences, Inc

skMLCK = biological target: T30, skMLCK (Homo sapiens, UniProt Q9H1R3); details: at 10 nM; recombinant skMLCK
T30 construct: purchased Carna Biosciences, Inc

MNK1 = biological target: T31, MNK1 (Homo sapiens, UniProt Q9BUB5); details: at 10 nM; recombinant MNK1
T31 construct: purchased Carna Biosciences, Inc

JAK2 = biological target: T32, JAK2 (Homo sapiens, UniProt O60674); details: at 10 nM; recombinant JAK2
T32 construct: purchased Carna Biosciences, Inc

EGFR(d746-750/T790M) = biological target: T33, EGFR(d746-750/T790M) (Homo sapiens, UniProt P00533, DEL746-750/T790M); details: at 10 nM; recombinant EGFR(d746-750/T790M)
T33 construct: purchased Carna Biosciences, Inc

inhibition at 0.001 µM (LYNb): > 50%
Compound: [2H]c1cc(C)c(NC(=O)c2cnc(Nc3cc(N4CCC(O)CC4)nc(C)n3)s2)c(Cl)c1 [Compound II, N-(2-chloro-4-deuterio-6-methyl-phenyl)-2-[[6-(4-hydroxy-1-piperidyl)-2-methyl-pyrimidin-4-yl]amino]thiazole-5-carboxamide]

inhibition at 0.01 µM (SRM): > 50%
inhibition at 0.01 µM (CSK): > 50%
inhibition at 0.01 µM (KIT(D816Y)): > 50%
inhibition at 0.01 µM (BRK): > 50%
inhibition at 0.01 µM (DDR1): < 50%
inhibition at 0.01 µM (HER4): < 50%
inhibition at 0.01 µM (EGFR(L858R)): < 50%
inhibition at 0.01 µM (KIT(V654A)): < 50%
inhibition at 0.01 µM (JAK1): < 50%
inhibition at 0.01 µM (RET): < 50%
inhibition at 0.01 µM (RET(S891A)): < 50%
inhibition at 0.01 µM (FGFR3): < 50%
inhibition at 0.01 µM (ALK): < 50%
inhibition at 0.01 µM (BRAF(V600E)): < 50%
inhibition at 0.01 µM (ROCK1): < 50%
inhibition at 0.01 µM (AurA): < 50%
inhibition at 0.01 µM (MAP2K2): < 50%
inhibition at 0.01 µM (RET(M918T)): < 50%
inhibition at 0.01 µM (KDR): < 50%
inhibition at 0.01 µM (FGFR2): < 50%
inhibition at 0.01 µM (Erk1): < 50%
inhibition at 0.01 µM (EGFR(T790M)): < 50%
inhibition at 0.01 µM (PDGFRα(T674I)): < 50%
inhibition at 0.01 µM (JAK3): < 50%
inhibition at 0.01 µM (MAP2K1): < 50%
inhibition at 0.01 µM (EGFR(T790M/L858R)): < 50%
inhibition at 0.01 µM (FLT1): < 50%
inhibition at 0.01 µM (MET): < 50%
inhibition at 0.01 µM (skMLCK): < 50%
inhibition at 0.01 µM (MNK1): < 50%
inhibition at 0.01 µM (JAK2): < 50%
inhibition at 0.01 µM (EGFR(d746-750/T790M)): < 50%
Compound: [2H]c1cc(C)c(NC(=O)c2cnc(Nc3cc(N4CCCCC4)nc(C)n3)s2)c(Cl)c1 [Compound I, N-(2-chloro-4-deuterio-6-methyl-phenyl)-2-[[2-methyl-6-(1-piperidyl)pyrimidin-4-yl]amino]thiazole-5-carboxamide]
